Results published in ChEMBL document CHEMBL5543072, “Discovery of a novel lead characterized by a stilbene-extended scaffold against sepsis as soluble epoxide hydrolase inhibitors” (Eur J Med Chem, 2024).
The source made the active and inactive calls. The calls are words filed in the database; no cut-off is given here.

Legend:
[1] = test system: Mus musculus; assay: Anti-inflammatory activity in LPS-induced C57BL/6J mouse model of sepsis assessed as TNF-alpha in serum at 5 mg/kg, ip preadministered with compound for 24 hrs followed by LPS administration and measured after 3 hrs by ELISA (reference value: 282 pg/ml); format: functional; conditions: time 27 hrs
[2] = Cytotoxicity in HEK293T cells assessed as cell viability at 50 uM incubated for 48 hrs by CCK8 assay relative to control; format: toxicity, cell-based, HEK-293T; conditions: human, read-out: Activity
[3] = Cmax in Sprague-Dawley rat at 5 mg/kg, iv measured after 24 hrs; format: ADME, organism-based; conditions: in vivo
[4] = test system: Mus musculus; assay: Protection against LPS-induced sepsis in C57BL/6J mouse model assessed as survival rate at 30 mg/kg, iv measured after 72 hrs relative to control; format: functional
[5] = test system: Mus musculus; assay: Protection against LPS-induced sepsis in C57BL/6J mouse model assessed as survival rate at 30 mg/kg, iv measured upto 56 hrs relative to control; format: functional
[6] = Cmax in Sprague-Dawley rat at 20 mg/kg, po measured after 24 hrs; format: ADME, organism-based; conditions: in vivo
[7] = Tmax in Sprague-Dawley rat at 20 mg/kg, po measured after 24 hrs; format: ADME, organism-based; conditions: in vivo
[8] = Cytotoxicity against human HepG2 cells assessed as cell viability at 50 uM incubated for 48 hrs by CCK8 assay relative to control; format: toxicity, cell-based; conditions: read-out: Activity
[9] = test system: Mus musculus; assay: Anti-inflammatory activity in LPS-induced C57BL/6J mouse model of sepsis assessed as TNF-alpha in liver at 5 mg/kg, ip preadministered with compound for 24 hrs followed by LPS administration and measured after 3 hrs by ELISA (reference value: 298 pg/ml); format: functional; conditions: time 27 hrs
[10] = Half-life in Sprague-Dawley rat at 5 mg/kg, iv measured after 24 hrs; format: ADME, organism-based; conditions: in vivo
[11] = test system: Mus musculus; assay: Protection against LPS-induced sepsis in C57BL/6J mouse model assessed as survival rate at 0.05 mg/kg, iv measured after 24 hrs relative to control; format: functional
[12] = test system: Mus musculus; assay: Protection against LPS-induced sepsis in C57BL/6J mouse model assessed as survival rate at 0.05 mg/kg, iv measured after 48 hrs relative to control; format: functional
[13] = test system: Mus musculus; assay: Protection against LPS-induced sepsis in C57BL/6J mouse model assessed as survival rate at 0.5 mg/kg, iv measured after 72 hrs relative to control; format: functional
[14] = test system: Mus musculus; assay: Protection against LPS-induced sepsis in C57BL/6J mouse model assessed as survival rate at 5 mg/kg, iv measured after 72 hrs relative to control; format: functional
[15] = Half-life in Sprague-Dawley rat at 20 mg/kg, po measured after 24 hrs; format: ADME, organism-based; conditions: in vivo
[16] = Cytotoxicity against human HepG2 cells assessed as cell viability at 5 uM incubated for 48 hrs by CCK8 assay relative to control; format: toxicity, cell-based; conditions: read-out: Activity
[17] = AUC (0 to 24 hrs) in Sprague-Dawley rat at 5 mg/kg, iv measured after 24 hrs; format: ADME, organism-based; conditions: in vivo
[18] = Apparent volume of distribution in Sprague-Dawley rat at 20 mg/kg, po measured after 24 hrs; format: ADME, organism-based; conditions: in vivo
[19] = test system: Mus musculus; assay: Protection against LPS-induced sepsis in C57BL/6J mouse model assessed as survival rate at 5 mg/kg, iv measured after 24 hrs relative to control; format: functional
[20] = target: T1, Bifunctional epoxide hydrolase 2 (Mus musculus, UniProt P34914)
T1 sequence (P34914 whole entry): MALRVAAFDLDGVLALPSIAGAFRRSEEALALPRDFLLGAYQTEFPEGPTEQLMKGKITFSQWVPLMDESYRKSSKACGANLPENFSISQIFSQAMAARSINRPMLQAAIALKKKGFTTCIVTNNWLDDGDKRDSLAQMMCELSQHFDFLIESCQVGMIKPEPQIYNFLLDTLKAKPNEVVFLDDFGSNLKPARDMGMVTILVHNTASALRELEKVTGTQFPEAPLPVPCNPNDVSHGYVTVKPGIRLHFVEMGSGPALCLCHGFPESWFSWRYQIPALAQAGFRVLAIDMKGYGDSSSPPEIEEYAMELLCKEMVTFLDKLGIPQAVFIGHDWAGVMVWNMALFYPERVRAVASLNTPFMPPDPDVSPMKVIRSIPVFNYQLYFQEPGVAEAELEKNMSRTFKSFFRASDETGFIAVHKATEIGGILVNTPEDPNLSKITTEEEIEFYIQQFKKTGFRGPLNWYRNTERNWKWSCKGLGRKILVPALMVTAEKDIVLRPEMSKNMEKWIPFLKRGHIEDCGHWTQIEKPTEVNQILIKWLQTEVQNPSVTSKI

[21] = test system: Mus musculus; assay: Protection against LPS-induced sepsis in C57BL/6J mouse model at 0.05 mg/kg, iv measured after 72 hrs; format: functional, organism-based
[22] = AUC (0 to 24 hrs) in Sprague-Dawley rat at 20 mg/kg, po measured after 24 hrs; format: ADME, organism-based; conditions: in vivo
[23] = test system: Mus musculus; assay: Protection against LPS-induced sepsis in C57BL/6J mouse model assessed as survival rate at 5 mg/kg, iv measured after 48 hrs relative to control; format: functional
[24] = test system: Mus musculus; assay: Protection against LPS-induced sepsis in C57BL/6J mouse model assessed as […] at 5 mg/kg, iv measured after 32 hrs relative to control; format: functional
[25] = Cytotoxicity in HEK293T cells assessed as cell viability at 5 uM incubated for 48 hrs by CCK8 assay relative to control; format: toxicity, cell-based, HEK-293T; conditions: human, read-out: Activity
[26] = target: T2, Bifunctional epoxide hydrolase 2 (Homo sapiens, UniProt P34913)
T2 sequence (P34913 whole entry): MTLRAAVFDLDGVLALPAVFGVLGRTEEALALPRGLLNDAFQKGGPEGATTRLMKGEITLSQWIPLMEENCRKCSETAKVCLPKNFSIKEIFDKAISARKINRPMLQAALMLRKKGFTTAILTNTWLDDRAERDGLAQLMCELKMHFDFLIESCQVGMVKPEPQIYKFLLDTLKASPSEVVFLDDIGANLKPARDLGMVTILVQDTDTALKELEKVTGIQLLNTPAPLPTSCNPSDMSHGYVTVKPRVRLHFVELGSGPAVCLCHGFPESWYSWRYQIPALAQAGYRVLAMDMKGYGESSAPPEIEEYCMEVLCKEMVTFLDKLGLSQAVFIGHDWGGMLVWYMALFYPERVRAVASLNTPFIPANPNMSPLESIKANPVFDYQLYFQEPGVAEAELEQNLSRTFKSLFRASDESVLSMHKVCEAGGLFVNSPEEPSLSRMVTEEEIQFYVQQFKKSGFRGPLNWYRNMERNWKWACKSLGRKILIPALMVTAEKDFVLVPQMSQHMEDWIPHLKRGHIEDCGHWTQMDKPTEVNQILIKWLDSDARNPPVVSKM

[27] = Cmax in C57BL/6J mouse blood at 5 mg/kg, ip measured after 24 hrs by LC-MS/MS analysis; format: ADME, organism-based
[28] = test system: Mus musculus; assay: Protection against LPS-induced sepsis in C57BL/6J mouse model assessed as survival rate at 30 mg/kg, iv measured after 24 hrs relative to control; format: functional

## O=C(Cc1ccccn1)Nc1cccc(/C=C/c2ccc(NC(=O)NCC3CCOCC3)cc2)c1
[1]
  Activity: 242 pg/mL
[2]
  viability at 48 h, 50 µM: 46.6%
[3]
  Cmax: 660 ng/mL
[4]
  survival at 30 mg/kg: 10%
[5]
  survival at 30 mg/kg: > 50%
[6]
  Cmax: 28.2 ng/mL
[7]
  Tmax: 30 min
[8]
  viability at 48 h, 50 µM: 46.5%
[9]
  Activity: 193 pg/mL
[10]
  half-life: 24 min
[11]
  survival at 0.05 mg/kg: 30%
[12]
  survival at 0.05 mg/kg: 10%
[13]
  survival at 0.5 mg/kg: 40%
[14]
  survival at 5 mg/kg: 40%
[15]
  half-life: 131 min
[16]
  viability at 48 h, 5 µM: 73.9%
[17]
  AUC(0-t) at 24 h: 266 ng·h/mL
[18]
  Vz: 4132.531 L/kg
[19]
  survival at 5 mg/kg: 60%
[20]
  IC50: 4.02 nM
[21]
  Activity: inactive
[22]
  AUC: 48 ng·h/mL
[23]
  survival at 5 mg/kg: 40%
[24]
  Activity: 40%
[25]
  viability at 48 h, 5 µM: 82.9%
[26]
  IC50: 1.52 nM
[27]
  Cmax: 330 ng/mL
[28]
  survival at 30 mg/kg: 60%
